Assay results as given in US11807693B2 (priority 2014, dated 2023).
Starred links: 1 amine or outer side, 2 acyl side, 3 side chain; linkers in the order of their positions; H or OH if unused. Non-standard residues stand in square brackets, D forms with d. Residues, ends and D or L forms follow the SMILES beside them. *: point of attachment. Oic = O=C(O)[C@@H]1C[C@@H]2CCCC[C@@H]2N1; Phe(4-Cl) = N[C@@H](Cc1ccc(Cl)cc1)C(=O)O; dPhe(4-Cl) = N[C@H](Cc1ccc(Cl)cc1)C(=O)O; γGlu = O=C(O)[C@H](CCC(=O)[*:2])N[*:1]; 2Nal = N[C@@H](Cc1ccc2ccccc2c1)C(=O)O; NMehArg = CN[C@@H](CCCCNC(=N)N)C(=O)O; d(β3hF) = N[C@@H](CC(=O)O)Cc1ccccc1; dIgl = N[C@@H](C(=O)O)C1Cc2ccccc2C1; NMeR = CN[C@@H](CCCNC(=N)N)C(=O)O; Palmitoyl = CCCCCCCCCCCCCCCC(=O)*; Tridecanoyl = CCCCCCCCCCCCC(=O)*; X1 = O=C(CN(C1CCNCC1)[*:1])[*:2]; hArg = N=C(N)NCCCC[C@H](N)C(=O)O; Cha = N[C@@H](CC1CCCCC1)C(=O)O; NMeL = CN[C@@H](CC(C)C)C(=O)O; β3hN = NC(=O)C[C@H](N)CC(=O)O; Tle = CC(C)(C)[C@H](N)C(=O)O; Pip = O=C(O)[C@@H]1CCCCN1; Nle = CCCC[C@H](N)C(=O)O; Deg = CCC(N)(CC)C(=O)O; AEEA = NCCOCCOCC(=O)O; Aib = CC(C)(N)C(=O)O

These compounds were tested against T1, rat APJ receptor (Rattus norvegicus, UniProt Q9JHG3) (assay: [35S] GTPγS assay, rat APJ receptor). Conditions: Table 16, read-out: EC50 Rat APJ Receptor.
T1 construct: expressed in transfected cells
T1 sequence (Q9JHG3 1-377): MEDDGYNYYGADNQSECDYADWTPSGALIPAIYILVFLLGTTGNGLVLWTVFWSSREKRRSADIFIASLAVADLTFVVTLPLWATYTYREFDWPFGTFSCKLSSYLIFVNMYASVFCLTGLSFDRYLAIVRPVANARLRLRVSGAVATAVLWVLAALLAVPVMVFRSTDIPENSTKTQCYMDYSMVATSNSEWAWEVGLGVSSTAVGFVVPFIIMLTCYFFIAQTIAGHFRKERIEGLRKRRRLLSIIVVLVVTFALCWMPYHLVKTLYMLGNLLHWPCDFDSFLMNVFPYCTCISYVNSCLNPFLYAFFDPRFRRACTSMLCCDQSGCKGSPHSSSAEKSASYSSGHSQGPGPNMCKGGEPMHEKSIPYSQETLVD
Type: biochemical
Method: The membranes were incubated with modified peptides in the assay buffer. […] Bound [^35S] GTPγS was separated from free radiolabel by filtration. The filter bound radioactivity was determined by liquid scintillation counting.

| EC50 [nM] | Structure (SMILES) |
| --- | --- |
| 25 | CCCCCCCCCCCCC(=O)N[C@@H](CCC(=O)NCCOCCOCC(=O)NCCOCCOCC(=O)N[C@H](CCC(N)=O)C(=O)N[C@@H](CCCCNC(=N)N)C(=O)N1CCC[C@H]1C(=O)N[C@H](CCCNC(=N)N)C(=O)N[C@@H](CC1CCCCC1)C(=O)N[C@@H](CO)C(=O)N[C@@H](Cc1c[nH]cn1)C(=O)N[C@@H](CCCCN)C(=O)NCC(=O)N1[C@H](C(=O)N[C@@H](CCCC)C(=O)N2CCC[C@H]2C(=O)N[C@@H](C(=O)O)C2Cc3ccccc3C2)C[C@@H]2CCCC[C@@H]21)C(=O)O [compound 431] ({Tridecanoyl-γGlu-AEEA-AEEA}-[dQ][hArg]P[dR][Cha]SHKG[Oic][Nle]P[dIgl]-OH) |
| 8.1 | CCCCCCCCCCCCC(=O)N[C@@H](CCC(=O)NCCOCCOCC(=O)NCCOCCOCC(=O)N[C@@H](CCC(N)=O)C(=O)N[C@@H](CCCNC(=N)N)C(=O)N1CCC[C@H]1C(=O)N(C)[C@@H](CCCNC(=N)N)C(=O)N[C@@H](CC(C)C)C(=O)N[C@@H](CO)C(=O)N[C@@H](Cc1c[nH]cn1)C(=O)N[C@@H](CCCCN)C(=O)NCC(=O)N1CCC[C@H]1C(=O)N[C@@H](CCCC)C(=O)N[C@@H](Cc1ccc2ccccc2c1)C(=O)O)C(=O)O [compound 403] ({Tridecanoyl-γGlu-AEEA-AEEA}-QRP[NMeR]LSHKGP[Nle][2Nal]-OH) |
| 1.15 | CCCCCCCCCCCCC(=O)N[C@@H](CCC(=O)NCCOCCOCC(=O)NCCOCCOCC(=O)N[C@@H](CCC(N)=O)C(=O)N[C@H](CCCNC(=N)N)C(=O)N1CCC[C@H]1C(=O)N(C)[C@@H](CCCCNC(=N)N)C(=O)N[C@@H](CC1CCCCC1)C(=O)N[C@@H](CO)C(=O)N[C@@H](Cc1c[nH]cn1)C(=O)N[C@@H](CCCCN)C(=O)NCC(=O)N1CCC[C@H]1C(=O)N[C@@H](CCCC)C(=O)N1CCC[C@H]1C(=O)N[C@@H](Cc1ccc(Cl)cc1)C(=O)O)C(=O)O [compound 435] ({Tridecanoyl-γGlu-AEEA-AEEA}-Q[dR]P[NMehArg][Cha]SHKGP[Nle]P[Phe(4-Cl)]-OH) |
| 0.175 | CCCCCCCCCCCCC(=O)N[C@@H](CCC(=O)NCCOCCOCC(=O)NCCOCCOCC(=O)N[C@@H](CCC(N)=O)C(=O)N[C@@H](CCCNC(=N)N)C(=O)N1CCC[C@H]1C(=O)N[C@@H](CCC(N)=O)C(=O)N[C@@H](CC(C)C)C(=O)N[C@@H](CO)C(=O)N[C@@H](Cc1c[nH]cn1)C(=O)N[C@@H](CCCCN)C(=O)NCC(=O)N1CCC[C@H]1C(=O)N[C@@H](CCCC)C(=O)N1CCC[C@H]1C(=O)N[C@@H](Cc1ccc(Cl)cc1)C(=O)O)C(=O)O [compound 465] ({Tridecanoyl-γGlu-AEEA-AEEA}-QRPQLSHKGP[Nle]P[Phe(4-Cl)]-OH) |
| 31.7 | CCCCCCCCCCCCC(=O)N[C@@H](CCC(=O)NCCOCCOCC(=O)NCCOCCOCC(=O)N[C@H](CCC(N)=O)C(=O)N[C@@H](CCCCNC(=N)N)C(=O)N1CCC[C@H]1C(=O)N[C@H](CCCNC(=N)N)C(=O)N[C@@H](CC1CCCCC1)C(=O)N[C@@H](CO)C(=O)NC(CC)(CC)C(=O)N[C@@H](CCCCN)C(=O)NCC(=O)N1[C@H](C(=O)N[C@@H](CCCC)C(=O)N2CCC[C@H]2C(=O)N[C@@H](Cc2ccc(Cl)cc2)C(=O)O)C[C@@H]2CCCC[C@@H]21)C(=O)O [compound 451] ({Tridecanoyl-γGlu-AEEA-AEEA}-[dQ][hArg]P[dR][Cha]S[Deg]KG[Oic][Nle]P[Phe(4-Cl)]-OH) |
| 10.3 | CCCCCCCCCCCCC(=O)N[C@@H](CCC(=O)NCCOCCOCC(=O)NCCOCCOCC(=O)N[C@H](CCC(N)=O)C(=O)N[C@@H](CCCCNC(=N)N)C(=O)NC(CC)(CC)C(=O)N[C@H](CCCNC(=N)N)C(=O)N[C@@H](CC1CCCCC1)C(=O)N[C@@H](CO)C(=O)N[C@@H](Cc1c[nH]cn1)C(=O)N[C@@H](CCCCN)C(=O)NCC(=O)N1[C@H](C(=O)N[C@@H](CCCC)C(=O)N2CCC[C@H]2C(=O)N[C@@H](Cc2ccc(Cl)cc2)C(=O)O)C[C@@H]2CCCC[C@@H]21)C(=O)O [compound 455] ({Tridecanoyl-γGlu-AEEA-AEEA}-[dQ][hArg][Deg][dR][Cha]SHKG[Oic][Nle]P[Phe(4-Cl)]-OH) |
| 0.0627 | CCCCCCCCCCCCC(=O)N[C@@H](CCC(=O)NCCOCCOCC(=O)NCCOCCOCC(=O)N[C@@H](CCC(N)=O)C(=O)N[C@@H](CCCCNC(=N)N)C(=O)N1CCC[C@H]1C(=O)N(C)[C@@H](CCCNC(=N)N)C(=O)N[C@@](C)(CC(C)C)C(=O)N[C@@H](CO)C(=O)N[C@@H](Cc1c[nH]cn1)C(=O)N[C@@H](CCCCN)C(=O)NCC(=O)N1CCC[C@H]1C(=O)N[C@@H](CCCC)C(=O)N1CCC[C@H]1C(=O)N[C@@H](Cc1ccc(Cl)cc1)C(=O)O)C(=O)O [compound 460] |
| 19.8 | CCCCCCCCCCCCC(=O)N[C@@H](CCC(=O)NCCOCCOCC(=O)NCCOCCOCC(=O)N[C@H](CCC(N)=O)C(=O)N[C@@H](CCCCNC(=N)N)C(=O)N1CCC[C@H]1C(=O)N[C@H](CCCNC(=N)N)C(=O)N[C@H](C(=O)N[C@@H](CO)C(=O)N[C@@H](Cc1c[nH]cn1)C(=O)N[C@@H](CCCCN)C(=O)NCC(=O)N1[C@H](C(=O)N[C@@H](CCCC)C(=O)N2CCC[C@H]2C(=O)N[C@@H](Cc2ccc(Cl)cc2)C(=O)O)C[C@@H]2CCCC[C@@H]21)C(C)(C)C)C(=O)O [compound 433] ({Tridecanoyl-γGlu-AEEA-AEEA}-[dQ][hArg]P[dR][Tle]SHKG[Oic][Nle]P[Phe(4-Cl)]-OH) |

Same assay, conditions: rat APJ receptor, read-out: EC50 Rat APJ Receptor

| EC50 [nM] | Structure (SMILES) |
| --- | --- |
| 0.994 | CCCCCCCCCCCCCCCC(=O)N[C@@H](CCC(=O)NCCOCCOCC(=O)NCCOCCOCC(=O)N[C@H](CCC(N)=O)C(=O)N(CC(=O)N1CCC[C@H]1C(=O)N(C)[C@@H](CCCNC(=N)N)C(=O)N[C@@H](CC1CCCCC1)C(=O)N[C@@H](CO)C(=O)N[C@@H](Cc1c[nH]cn1)C(=O)N[C@@H](CCCCN)C(=O)NCC(=O)N1CCCC[C@H]1C(=O)N[C@@H](CCCC)C(=O)NC(C)(C)C(=O)N[C@@H](Cc1ccc(Cl)cc1)C(=O)O)C1CCNCC1)C(=O)O [compound 646] ({Palmitoyl-γGlu-AEEA-AEEA}-[dQ][X1]P[NMeR][Cha]SHKG[Pip][Nle][Aib][Phe(4-Cl)]-OH) |
| 2.83 | CCCCCCCCCCCCCCCC(=O)N[C@@H](CCC(=O)NCCOCCOCC(=O)NCCOCCOCC(=O)N[C@H](CCC(N)=O)C(=O)N[C@@H](CCCNC(=N)N)C(=O)N1CCC[C@H]1C(=O)N(C)[C@@H](CCCNC(=N)N)C(=O)N[C@@H](CC1CCCCC1)C(=O)N[C@@H](CO)C(=O)N[C@@H](Cc1c[nH]cn1)C(=O)N[C@@H](CCCCN)C(=O)NCC(=O)N1CCCC[C@H]1C(=O)N[C@@H](CCCC)C(=O)N[C@@H](CC(=O)O)Cc1ccccc1)C(=O)O [compound 574] ({Palmitoyl-γGlu-AEEA-AEEA}-[dQ]RP[NMeR][Cha]SHKG[Pip][Nle][d(β3hF)]-OH) |

The next lines start with the compound.

| Structure (SMILES) | EC50 [nM] |
| --- | --- |
| CSCC[C@H](NC(=O)[C@@H]1CCCN1C(=O)CNC(=O)[C@H](CCCCN)NC(=O)[C@H](Cc1c[nH]cn1)NC(=O)[C@H](CO)NC(=O)[C@H](CC(C)C)NC(=O)[C@H](CCCNC(=N)N)NC(=O)[C@@H]1CCCN1C(=O)[C@H](CCCNC(=N)N)NC(=O)[C@H](CCC(N)=O)NC(=O)[C@H](CCCNC(=N)N)NC(=O)[C@H](CCCNC(=N)N)NC(=O)[C@H](Cc1ccccc1)NC(=O)[C@@H](N)CCCCN)C(=O)N1CCC[C@H]1C(=O)O [compound 12] | 5.81 |
| CCCCCCCCCCCCC(=O)N[C@@H](CCC(=O)NCCOCCOCC(=O)NCCOCCOCC(=O)NCCOCCOCC(=O)NCCOCCOCC(=O)NCCOCCOCC(=O)NCCOCCOCC(=O)N[C@@H](CCC(N)=O)C(=O)N[C@@H](CCCNC(=N)N)C(=O)N1CCC[C@H]1C(=O)N(C)[C@@H](CCCNC(=N)N)C(=O)N[C@@H](CC(C)C)C(=O)N[C@@H](CO)C(=O)N[C@@H](Cc1c[nH]cn1)C(=O)N[C@@H](CCCCN)C(=O)NCC(=O)N1CCC[C@H]1C(=O)N[C@@H](CCCC)C(=O)N1CCC[C@H]1C(=O)N[C@@H](Cc1ccc(Cl)cc1)C(=O)O)C(=O)O [compound 398] | 0.116 |
| CCCCCCCCCCCCC(=O)N[C@@H](CCC(=O)NCCOCCOCC(=O)NCCOCCOCC(=O)N[C@@H](CC(N)=O)CC(=O)N[C@@H](CCCCNC(=N)N)C(=O)N1CCC[C@H]1C(=O)N(C)[C@@H](CCCNC(=N)N)C(=O)N[C@@H](CC1CCCCC1)C(=O)N[C@@H](CO)C(=O)N[C@@H](Cc1c[nH]cn1)C(=O)N[C@@H](CCCCN)C(=O)NCC(=O)N1[C@H](C(=O)N[C@@H](CCCC)C(=O)N2CCC[C@H]2C(=O)N[C@H](Cc2ccc(Cl)cc2)C(=O)O)C[C@@H]2CCCC[C@@H]21)C(=O)O [compound 299] ({Tridecanoyl-γGlu-AEEA-AEEA}-[β3hN][hArg]P[NMeR][Cha]SHKG[Oic][Nle]P[dPhe(4-Cl)]-OH) | 14.6 |
| CCCC[C@H](NC(=O)[C@@H]1CCCN1C(=O)CNC(=O)[C@H](CCCCN)NC(=O)[C@H](Cc1c[nH]cn1)NC(=O)[C@H](CO)NC(=O)[C@H](CC(C)C)N(C)C(=O)[C@H](CCCNC(=N)N)NC(=O)[C@@H]1CCCN1C(=O)[C@H](CCCNC(=N)N)NC(=O)[C@H](CCC(N)=O)NC(=O)[C@H](CCCNC(=N)N)NC(C)=O)C(=O)N1CCC[C@H]1C(=O)N[C@@H](Cc1ccc(Cl)cc1)C(=O)O [compound 64] (Ac-RQRPR[NMeL]SHKGP[Nle]P[Phe(4-Cl)]-OH) | 0.411 |
| CCCC[C@H](NC(=O)[C@@H]1CCCN1C(=O)CNC(=O)[C@H](CCCCN)NC(=O)[C@H](Cc1c[nH]cn1)NC(=O)[C@H](CO)NC(=O)[C@H](CC(C)C)N(C)C(=O)[C@H](CCCNC(=N)N)N(C)C(=O)[C@@H]1CCCN1C(=O)[C@H](CCCNC(=N)N)NC(=O)[C@H](CCC(N)=O)NC(=O)[C@H](CCCNC(=N)N)NC(C)=O)C(=O)N1CCC[C@H]1C(=O)N[C@@H](Cc1ccc(Cl)cc1)C(=O)O [compound 67] (Ac-RQRP[NMeR][NMeL]SHKGP[Nle]P[Phe(4-Cl)]-OH) | 1.4 |
